Assay results: a melting point compilation (Tetko et al.; mined from patent text by program, amines drawn as free bases though some values may be those of a salt)

| Structure (SMILES) | melting point [°C] |
| --- | --- |
| CCC(=O)NC1=NN(c2ccccc2)C(C)C1 (stereo not given) | 96 to 96.5 |
| CC(=O)OC1CSC(Oc2cnc(-c3ccncc3)c(Cl)c2)C(OC(C)=O)C1OC(C)=O (stereo not given) | 153 |
| N#Cc1cc(Cl)ccc1Oc1cc(N2CCOCC2)c(F)cc1OCc1ccccc1 | 134 to 135 |
| O=C(c1ccc(Sc2ccc(O)cc2)cc1)c1ccc(Sc2ccc(O)cc2)cc1 | 219 to 221 |
| O=C1NC(=O)c2c1c(-c1ccccc1)cc1c2c2cc(O)ccc2n1CCCn1ccnc1 | 309 to 311 |
| N#Cc1cccc(/C=C/C2=CCN(Cc3c[nH]c4ncccc34)CC2)c1 | 213 to 215 |
| CCC1=NN=C(c2ccc(OC)c(OC)c2)c2cc(OC)c(OC)cc2C1C (stereo not given) | 157 to 158 |
| Cc1nnc(-c2ccc3occ(-c4cnn(Cc5ccccc5F)c4)c3c2)o1 | 142 to 143 |
| CC1=NN(C(=O)c2ccccc2Cl)C2(O)CCCC12 (stereo not given) | 147 to 150 |
| CCC(=O)Nc1c(C)nn(C)c1C#N | 153 to 155 |
| CS(=O)(=O)N[C@H]1CC[C@H](CCN2CCN(c3nccc4c3CCO4)CC2)CC1 | 220 |
| O=[N+]([O-])c1ccc(S(=O)(=O)OS(=O)(=O)c2ccc([N+](=O)[O-])cc2)cc1 | 171 to 172 |
| CC(CCCC(=O)O)NC(=O)C(C)S (stereo not given) | 78 to 79 |
| N#CC(Cc1c[nH]cn1)(c1ccc(Cl)cc1)c1ccc(Cl)cc1 | 152 to 153 |
| COC(=O)c1ccccc1NC(=O)CN1CCNCC1 | 94 to 96 |
| O=c1c2ccc(Cl)cc2[nH]n1-c1ccccc1F | 205 to 215 |
| O=C(NCN1CCOCC1)c1cn(-c2ccc(F)cc2)c2cc(-c3ccncc3)ccc2c1=O | 258 to 260 |
| COCCC(=O)Nc1cccc(-c2cccc3cc(Cc4cccc(C(F)(F)F)c4)sc23)c1 | 102 to 103 |
| CC(C)(C)c1cc(C=O)c(O)c(Br)c1Cl | 92 to 94 |
| CC(=O)Nc1ccc(C=CC(=O)C(C)CC(=O)O)cc1 (stereo not given) | 189 to 190 |
| CC(C)(C(=O)O)c1ccc(OCCCc2cc3c(cc2O)CC(CCc2ccccc2)O3)cc1 (stereo not given) | 134 to 136 |
| NC(=NCC(F)(F)F)Nc1ccnc(OCCCO)n1 | 118 to 120 |
| Cn1c(=O)c(S(C)=O)c(O)c2ccccc21 (stereo not given) | 197 to 200 |
| Cn1c(COc2ccc(CC3SC(=O)NC3=O)cc2)nc2ccc(Oc3ccc(NC(=O)Nc4ccc(C(F)(F)F)cc4)cc3)cc21 (stereo not given) | 179 to 180 |
| COC(=O)C(C)(C)OCc1cc2cc(Cl)ccc2n1S(=O)(=O)c1ccc2c(c1)CCN2C(C)=O | 128 to 130 |
| COc1ccc(NC(=O)CCCC(O)c2ccc(OC)cc2)cc1 (stereo not given) | 118 to 120 |
| O=C(NCc1ccon1)c1ccnc(N2CCN(Cc3ccc(F)cc3)C2=O)c1 | 127 to 129 |
| CCCCCCCCCCCCCCCC(=O)Oc1ccc(C(O)C(C)N2CCC(Cc3ccccc3)CC2)cc1 (stereo not given) | 75 to 77 |
| C=C1CCC2C3CCC4CC(O)C(OC)CC4(C)C3CCC12C (stereo not given) | 131 to 133 |

Now from value to molecule:

| melting point [°C] | Structure (SMILES) |
| --- | --- |
| 208 to 209 | COc1cc2c(c3c1OC(C)(C)C3)C(c1cccc(-c3ccc(NC(C)=O)nc3)c1)=NC(C)(C)C2 |
| 102 | CC(C)N(C(=O)CC(c1ccccc1)c1cc(Br)ccc1OCc1ccccc1)C(C)C (stereo not given) |
| 207 to 210 | COc1cc(C(=O)O)nc(-c2cccc([N+](=O)[O-])c2)c1 |
| 71 to 72 | CC(O)C#Cc1ccc(Cl)cc1 (stereo not given) |
| 142 to 145 | N#CC(C#N)CC(=O)c1ccc(Cl)c(Cl)c1 |
| 108 to 110 | COc1cccc(CNC(=O)[C@H]2N(C(=O)[C@@H](O)[C@@H](Cc3ccccc3)NC(=O)c3cccc(O)c3C)CSC2(C)C)c1 |
| 30.5 to 31.5 | CCOC(=O)c1sc(OCC)nc1C(F)(F)F |
| 108 to 110 | COC(=O)C1=C(C)NC(C)=C(C(=O)OCC2CCCO2)C1c1cccc(C(F)(F)F)c1 (stereo not given) |
| 150 to 152 | CCN(CC)C(=O)c1ccc2ccccc2c1-c1ccccc1C |
| 87 | CCN(CC)C(=O)CCc1nc(-c2cccc(OC)c2)nc2ccccc12 |
| 238 to 239 | O=C(C=Cc1ccccc1)NCc1ccc(C(=O)O)cc1 |
| 154 to 155 | COc1cc(CNC(=O)c2oc(=O)c3ncccc3c2-c2ccc(C)cc2)cc(OC)c1 |
| 188 to 193 | O=C(O)Cc1c(C(=O)O)c2cc(Oc3cccc(OC(F)(F)F)c3)ccc2n1-c1ccc(OC(F)(F)F)cc1 |
| 119 | CCO[C@@H](Cc1ccc(-c2nc([N+](=O)[O-])nn2C)cc1)C(=O)OC |
| 231 to 233 | Nc1ncccc1-c1nc2ccc(-c3ccncc3)nc2n1-c1ccc(CNC(=O)c2ccccc2)cc1 |
| 84 to 86 | CO/C=C(/C(=O)OC)c1cccnc1Oc1cccc(C=O)c1 |
| 156 to 157 | Cc1c(C)c2c(c(C)c1NC(=O)CCCO)C(c1ccc(C(C)C)cc1)CO2 (stereo not given) |
| 178 to 180 | COc1cc(C)c([N+](=O)[O-])cc1C(=O)NCC1CCCO1 (stereo not given) |
| > 220 | O=C1NC(=O)c2cc(Nc3ccc(F)cc3)c(Nc3ccc(F)cc3)cc21 |
| 231 to 233 | CC(C)Cn1cnc2c(N)nc3c(c21)CCCN3 |
| 176 | O=C1NC(=Cc2ccccc2Cl)C(=O)C1=NO |

| melting point [°C] | Structure (SMILES) |
| --- | --- |
| 113 | N#CCN1CC[C@@H](NCc2ccccc2)[C@H](O)C1 (relative stereo) |
| 71 to 73 | Cc1ccc(-c2cc(C)ccc2C=CC#Cc2ccc(C(=O)O)cc2)cc1 |
| 285 to 286 | CC1=C(Nc2ccc(C3=NNC(=O)CC3C)cc2)CCC1=O (stereo not given) |
| 168 to 170 | COc1ccc(-c2cc(-c3nc(C)cs3)c(=O)n(C)c2-c2cnccn2)cc1 |
| 83 to 86 | c1ccc(CN2CCN(Cc3ccccc3)[C@@H](CCc3ccccn3)C2)cc1 |
| 154 to 157 | CCOC(=O)c1cn(C2CC2)c2c(Cl)c(F)c(F)cc2c1=O |
| 120 | C#CCN1CCCc2ccc(OC(=O)Nc3c(C)cccc3C(C)C)cc21 |
| 114 to 115 | CC(C)CNc1c([N+](=O)[O-])cnc2cc(Br)cnc12 |
| 101 | Cc1cc(Oc2ccccc2)nc2ccccc12 |
| 94 | CC(=O)Nc1ccc(OCCOCCO)cc1 |
| 155 to 163 | Cc1nc(Br)sc1C(=O)N[C@H](C)[C@](O)(Cn1cncn1)c1ccc(F)cc1F |
| 126 to 128 | O=C(NCC12CC3CC(CC(C3)C1)C2)c1cc(-c2ccc(F)cc2C(=O)O)ccc1Cl |
| 220 to 222 | CC(C)(C)OC(=O)Nc1ccccc1NC(=O)c1ccc(C(=O)Nc2cccc(Nc3nc(-c4cccnc4)cs3)c2)cn1 |
| 88 to 89 | COc1cccc(CC(=O)O)c1OCCc1ccccc1 |
| 134 to 135 | CNc1nc(C(C)c2ccc(-c3ccccc3)c(F)c2)co1 (stereo not given) |
| 47 to 49 | COc1cccc2c1CCC(C#N)=C2 |
| 154 to 156 | CC(C)(C)c1cc(I)c(O)c(C=NO)c1 |
| 162 | O=C(Nc1ccc(N2CCN(Cc3ccccc3)CC2)cc1)c1ccccc1-c1ccccc1 |
| 110 to 112 | COc1cnc(C(O)Cc2c(Cl)cncc2Cl)cc1OC1CCCC1 (stereo not given) |
| 146 to 147 | CN(O)C(=O)Nc1cccc(NC(=O)N(C)O)c1 |
